Experiments:
[1] = system: A10 cells; experiment: Cell cycle analysis using flow cytometry and BUdR staining; type: cell-based
Procedure: Cell cycle analysis was performed using flow cytometry and BUdR staining. In FIG. 3, “Con” represents untreated, control cells. All other cell cultures were treated with nocodazole, which interferes with microtubule polymerization and blocks the cell cycle during M phase. […] Because A10 cells reside primarily in the cell cycle checkpoint between G0 and G1 (See “Con” in FIG. 3), evaluating the possibility that a pharmacologic agent inhibits transit out of that phase is not as straightforward as determining blockade at other cell cycle checkpoints. Therefore, cell cultures were treated for 24 hours with T channel calcium channel blockers mibefradil (mib), nickel (Ni) or TTL-1177 (a proprietary compound owned by the assignee Tau Therapeutics), before adding nocodazole. Absent an effect on the T channel blockers, cells would be locked at the cell cycle checkpoint between G2 and M by nocodazole as happened with cells treated with it alone.

[2] = system: D54 tumors; experiment: Interlaced therapy, human glioblastoma murine xenograft model (Example 4); type: in vivo, Mice
Procedure: Studies of interlaced therapy for human glioblastoma in a murine xenograft model using the D54 cell line were conducted. Mice bearing subcutaneous implants of D54 tumors, which were allowed to become established at a volume of about 100 mm^3, were treated with mibefradil at 40 mg/kg p.o. q.i.d. for 7 days or left untreated. On day seven, all animals received the S phase cytotoxin temozolamide at a dose of 25% of the LD10 over five days. Following two days of no treatment, mibefradil was re-started at a dose of 35 mg/kg p.o. q.i.d. in the group of mice which were originally treated with mibefradil. On day 20, the mean tumor volume in the temozolamide only group of mice was 173 mm^3 as compared to the temozolamide plus mibefradil group of mice, whose mean tumor volume was 102 mm^3 (p=0.0485; n=10/group; Student's pooled, two tailed t-test). A pooled, two tailed. Student's t-test over all seven tumor volume measurements yielded p=0.0329. There were no animals that were euthanized in either group due to tumor size. The mean volume in the control group, which received no intervention, was 1214 mm^3 with three animals euthanized because of tumor size.

[3] = system: D54 tumors; experiment: Interlaced therapy, human glioblastoma murine xenograft model, two cytotoxin rounds (Example 5); type: in vivo, Mice; details: over 30 days; subcutaneous D54; temozolamide 25% then 10% of LD10; mibefradil 40 then 35 mg/kg p.o. q.i.d.
Procedure: Further studies of interlaced therapy for human glioblastoma in a murine xenograft model using the D54 cell line were conducted. Mice bearing subcutaneous implants of D54 tumors, which were allowed to become established, were treated with mibefradil at 40 mg/kg p.o. q.i.d. for 7 days or left untreated. On day seven, all animals received the S phase cytotoxin temozolamide at a dose of 25% of the LD10 over five days. Following two days of no treatment, mibefradil was re-started at a dose of 35 mg/kg p.o. q.i.d. in the group of mice which were originally treated with mibefradil.

[4] = system: PANC 219 tumor; type: in vivo; details: mibefradil 65 mg/kg p.o. b.i.d.
Procedure: Pancreatic cancers resected from patients were immediately transplanted into the flanks of nude mice and maintained by serial, in vivo passage. Transplanted tumors were implanted at a volume of about 100 mm^3 and allowed to grow to 200 to 300 mm^3 before initiation of treatment. Mice bearing the PANC 219 tumor were either left untreated or treated with mibefradil at 65 mg/kg p.o. b.i.d. (n=10 in each group). Tumor growth was normalized to the size measured at the start of treatment.

[5] = A10 cells treated 24 hours with T channel blocker before adding nocodazole

[Ni] [nickel]
effect on cell cycle transit [1, 5]: arrested cells at the cell cycle checkpoint between G0 and G1

Cn1nnc2c(C(N)=O)ncn2c1=O [temozolamide]
mean tumor volume ([2]; day 20, subcutaneous D54, temozolamide 25% of LD10 over five days, mibefradil 40 then 35 mg/kg p.o. q.i.d., n=10/group): 173 mm^3
animals euthanized due to tumor size ([2]; subcutaneous D54, n=10/group): no animals
mean tumor volume [3]: 156±65 mm^3

COCC(=O)O[C@]1(CCN(C)CCCc2nc3ccccc3[nH]2)CCc2cc(F)ccc2[C@@H]1C(C)C [mibefradil]
tumor regression ([4]; PANC 219 tumor in nude mice): did not cause tumor regression
tumor growth ([4]; PANC 219 tumor, growth normalized to size at start of treatment): controlled tumor growth
deaths in treatment group ([4]; n=10, day 9): One mouse in the treatment group died
effect on cell cycle transit [1, 5]: arrested cells at the cell cycle checkpoint between G0 and G1

COC(=O)Nc1nc2ccc(C(=O)c3cccs3)cc2[nH]1 [nocodazole]
effect on cell cycle transit ([1]; A10 cells, nocodazole alone): blocked cell cycle transit through M phase

From patent US20120088807A1, “INTERLACED METHOD FOR TREATING CANCER OR A PRECANCEROUS CONDITION” (TAU THERAPEUTICS LLC, priority 2009, published 2012)
